The source made the active and inactive calls. The rule behind the calls is not given here.

Assay [1] deals with T1, Prothrombin (Homo sapiens, UniProt P00734). As to the kind of experiment: Inhibition of thrombin (unknown origin) up to 150 to 350 uM using N-benzoyl-Phe-Val-Arg-p-nitroanilide hydrochloride as substrate pretreated for 5 mins followed by substrate addition measured after 30 mins by colorimetric method.
The target of assay [2] is T1, Prothrombin. As to the kind of experiment: Inhibition of thrombin (unknown origin) using N-benzoyl-Phe-Val-Arg-p-nitroanilide hydrochloride as substrate pretreated for 5 mins followed by substrate addition measured after 30 mins by colorimetric method.
In another assay the target is T2, Carboxypeptidase A1 (Bos taurus, UniProt P00730).
T2 sequence (P00730 whole entry): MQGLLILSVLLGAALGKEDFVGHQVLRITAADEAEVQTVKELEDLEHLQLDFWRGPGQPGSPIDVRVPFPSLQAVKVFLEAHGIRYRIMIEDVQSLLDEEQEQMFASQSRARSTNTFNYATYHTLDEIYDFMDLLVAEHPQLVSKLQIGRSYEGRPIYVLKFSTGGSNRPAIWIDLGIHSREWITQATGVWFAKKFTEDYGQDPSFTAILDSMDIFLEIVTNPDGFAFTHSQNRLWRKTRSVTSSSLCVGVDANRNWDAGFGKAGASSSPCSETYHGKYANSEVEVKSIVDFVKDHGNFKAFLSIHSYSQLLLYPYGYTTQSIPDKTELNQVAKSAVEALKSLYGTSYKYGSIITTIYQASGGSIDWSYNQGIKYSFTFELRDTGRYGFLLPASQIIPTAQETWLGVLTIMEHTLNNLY
As to the kind of experiment: Inhibition of bovine pancreas carboxypeptidase A using N-4-(methoxyphenylazoformyl)-Phe-OH as substrate measured after 5 mins by colorimetric method.

Assay [3] concerns the target T3, Chymotrypsin-C (Homo sapiens) (UniProt Q99895).
T3 sequence (whole entry): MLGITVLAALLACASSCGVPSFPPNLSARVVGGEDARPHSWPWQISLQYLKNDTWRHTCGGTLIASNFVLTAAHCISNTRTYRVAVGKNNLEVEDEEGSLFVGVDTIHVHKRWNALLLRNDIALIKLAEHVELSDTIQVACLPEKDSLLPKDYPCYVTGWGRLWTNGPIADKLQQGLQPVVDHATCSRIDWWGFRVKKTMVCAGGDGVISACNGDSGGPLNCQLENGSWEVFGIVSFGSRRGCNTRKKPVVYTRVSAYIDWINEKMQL
As to the kind of experiment: Inhibition of human pancreas chymotrypsin C up to 0.78 mM using N-succinyl-Ala-Ala-Pro-Phe p-nitroanilide as substrate pretreated for 5 mins followed by substrate addition measured after 30 mins by colorimetric method.

Turning to `CC1C[C@@H](C(=O)N[C@H](CO)CCCNC(=N)N)N(C(=O)[C@@H](Cc2ccc(O)cc2)NC(=O)C(O)CCc2ccc(O)cc2)C1` (stereo partly drawn), the inhibition entry on Prothrombin [1] was “inactive”.

Take `N=C(N)NCCC[C@@H](CO)NC(=O)[C@@H]1CCCN1C(=O)[C@@H](Cc1ccc(O)cc1)NC(=O)C(O)CCc1ccc(O)cc1` (stereo partly drawn): the IC50 on Prothrombin [2] is 250 µM.

`CC[C@@H](C)[C@H](NC(=O)N[C@@H]1CCCCNC(=O)[C@H](CCc2ccc(O)cc2)NC(=O)[C@H]([C@H](C)CC)NC1=O)C(=O)O` registered an IC50 at Carboxypeptidase A1 of 0.75 µM. Moreover, in assay [3], the inhibition result is “inactive”.

Consider `CC1C[C@@H](C(=O)N[C@@H](CO)CCCNC(=N)N)N(C(=O)[C@@H](Cc2ccc(O)cc2)NC(=O)C(O)CCc2ccc(O)cc2)C1` (stereo partly drawn), for which the inhibition result at Prothrombin [1] was “inactive”.

`N=C(N)NCCC[C@H](CO)NC(=O)[C@@H]1CCCN1C(=O)[C@@H](Cc1ccc(O)cc1)NC(=O)C(O)CCc1ccc(O)cc1` (stereo partly drawn): the IC50 on Prothrombin [2] was found to be 250 µM.

`CC[C@@H](C)[C@H](NC(=O)N[C@@H]1CCCCNC(=O)[C@H](CCc2ccc(O)cc2)NC(=O)[C@H](C(C)C)NC1=O)C(=O)O` returned an IC50 against Carboxypeptidase A1 of 2 µM. Moreover, the inhibition result in assay [3] was “inactive”.
